# Reference: PubChem BioAssay (NCI)
#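 Method: 48-hour compound exposure of cells in 96-well plates, five concentrations, linear interpolation of endpoints. Definition used: TGI = concentration required for complete inhibition of growth.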
# Columns and labels:
# Assay in all cases: NCI anticancer screen, dose series, 48 h
# 786-0 renal = tested on: 786-0 renal
# A498 renal = tested on: A498 renal
# A549 NSCLC = tested on: A549 NSCLC
# ACHN renal = tested on: ACHN renal
# BT-549 breast = tested on: BT-549 breast
# CAKI-1 renal = tested on: CAKI-1 renal
# CCRF-CEM leukemia = tested on: CCRF-CEM leukemia
# COLO 205 colon = tested on: COLO 205 colon
# DU-145 prostate = tested on: DU-145 prostate
# EKVX NSCLC = tested on: EKVX NSCLC
# HCC-2998 colon = tested on: HCC-2998 colon
# HCT-116 colon = tested on: HCT-116 colon
# HCT-15 colon = tested on: HCT-15 colon
# HL-60(TB) leukemia = tested on: HL-60(TB) leukemia
# HOP-62 NSCLC = tested on: HOP-62 NSCLC
# HOP-92 NSCLC = tested on: HOP-92 NSCLC
# HS 578T breast = tested on: HS 578T breast
# HT29 colon = tested on: HT29 colon
# IGROV1 ovarian = tested on: IGROV1 ovarian
# K-562 leukemia = tested on: K-562 leukemia
# KM12 colon = tested on: KM12 colon
# LOX IMVI melanoma = tested on: LOX IMVI melanoma
# M14 melanoma = tested on: M14 melanoma
# MCF7 breast = tested on: MCF7 breast
# MDA-MB-231 breast = tested on: MDA-MB-231 breast
# MDA-MB-435 = tested on: MDA-MB-435
# MDA-N = tested on: MDA-N
# MOLT-4 leukemia = tested on: MOLT-4 leukemia
# NCI-H460 lung = tested on: NCI-H460 lung
# NCI/ADR-RES ovarian = tested on: NCI/ADR-RES ovarian
# OVCAR-3 ovarian = tested on: OVCAR-3 ovarian
# OVCAR-4 ovarian = tested on: OVCAR-4 ovarian
# OVCAR-5 ovarian = tested on: OVCAR-5 ovarian
# OVCAR-8 ovarian = tested on: OVCAR-8 ovarian
# PC-3 prostate = tested on: PC-3 prostate
# RPMI-8226 leukemia = tested on: RPMI-8226 leukemia
# SF-268 CNS = tested on: SF-268 CNS
# SF-295 CNS = tested on: SF-295 CNS
# SF-539 CNS = tested on: SF-539 CNS
# SK-MEL-2 melanoma = tested on: SK-MEL-2 melanoma
# SK-MEL-28 melanoma = tested on: SK-MEL-28 melanoma
# SK-MEL-5 melanoma = tested on: SK-MEL-5 melanoma
# SK-OV-3 ovarian = tested on: SK-OV-3 ovarian
# SN12C renal = tested on: SN12C renal
# SNB-19 CNS = tested on: SNB-19 CNS
# SNB-75 CNS = tested on: SNB-75 CNS
# SR leukemia = tested on: SR leukemia
# SW-620 colon = tested on: SW-620 colon
# T-47D breast = tested on: T-47D breast
# TK-10 renal = tested on: TK-10 renal
# U251 CNS = tested on: U251 CNS
# UACC-257 melanoma = tested on: UACC-257 melanoma
# UACC-62 melanoma = tested on: UACC-62 melanoma
# UO-31 renal = tested on: UO-31 renal
# MALME-3M melanoma = tested on: MALME-3M melanoma
# NCI-H226 lung = tested on: NCI-H226 lung
# NCI-H23 lung = tested on: NCI-H23 lung
# NCI-H522 lung = tested on: NCI-H522 lung
# RXF 393 renal = tested on: RXF 393 renal
structure (smiles),measurement,setting,value
Cc1ccc2nc(Cl)c(/C=N/N3C(=O)/C(=C/c4ccc(N(C)C)cc4)N=C3c3ccccc3)cc2c1,TGI,786-0 renal,> 100 µM
same,TGI,A498 renal,> 100 µM
same,TGI,A549 NSCLC,> 100 µM
same,TGI,ACHN renal,> 100 µM
same,TGI,BT-549 breast,> 100 µM
same,TGI,CAKI-1 renal,> 100 µM
same,TGI,CCRF-CEM leukemia,> 100 µM
same,TGI,COLO 205 colon,> 100 µM
same,TGI,DU-145 prostate,> 100 µM
same,TGI,EKVX NSCLC,> 100 µM
same,TGI,HCC-2998 colon,> 100 µM
same,TGI,HCT-116 colon,> 100 µM
same,TGI,HCT-15 colon,> 100 µM
same,TGI,HL-60(TB) leukemia,> 100 µM
same,TGI,HOP-62 NSCLC,> 100 µM
same,TGI,HOP-92 NSCLC,> 100 µM
same,TGI,HS 578T breast,> 100 µM
same,TGI,HT29 colon,> 100 µM
same,TGI,IGROV1 ovarian,> 100 µM
same,TGI,K-562 leukemia,> 100 µM
same,TGI,KM12 colon,> 100 µM
same,TGI,LOX IMVI melanoma,> 100 µM
same,TGI,M14 melanoma,> 100 µM
same,TGI,MCF7 breast,> 100 µM
same,TGI,MDA-MB-231 breast,> 100 µM
same,TGI,MDA-MB-435,65.8 µM
same,TGI,MDA-N,92.6 µM
same,TGI,MOLT-4 leukemia,68.5 µM
same,TGI,NCI-H460 lung,> 100 µM
same,TGI,NCI/ADR-RES ovarian,> 100 µM
same,TGI,OVCAR-3 ovarian,44.9 µM
same,TGI,OVCAR-4 ovarian,> 100 µM
same,TGI,OVCAR-5 ovarian,> 100 µM
same,TGI,OVCAR-8 ovarian,> 100 µM
same,TGI,PC-3 prostate,> 100 µM
same,TGI,RPMI-8226 leukemia,65.3 µM
same,TGI,SF-268 CNS,> 100 µM
same,TGI,SF-295 CNS,> 100 µM
same,TGI,SF-539 CNS,52.4 µM
same,TGI,SK-MEL-2 melanoma,98.7 µM
same,TGI,SK-MEL-28 melanoma,> 100 µM
same,TGI,SK-MEL-5 melanoma,> 100 µM
same,TGI,SK-OV-3 ovarian,> 100 µM
same,TGI,SN12C renal,> 100 µM
same,TGI,SNB-19 CNS,> 100 µM
same,TGI,SNB-75 CNS,> 100 µM
same,TGI,SR leukemia,> 100 µM
same,TGI,SW-620 colon,> 100 µM
same,TGI,T-47D breast,> 100 µM
same,TGI,TK-10 renal,> 100 µM
same,TGI,U251 CNS,> 100 µM
same,TGI,UACC-257 melanoma,> 100 µM
same,TGI,UACC-62 melanoma,> 100 µM
same,TGI,UO-31 renal,> 100 µM
O=C(C#Cc1cn(C2CC(O)C(CO)O2)c(=O)[nH]c1=O)c1ccccc1 (configuration not stated),TGI,786-0 renal,> 100 µM
same,TGI,A549 NSCLC,> 100 µM
same,TGI,ACHN renal,> 100 µM
same,TGI,BT-549 breast,> 100 µM
same,TGI,CAKI-1 renal,> 100 µM
same,TGI,COLO 205 colon,65.7 µM
same,TGI,DU-145 prostate,> 100 µM
same,TGI,EKVX NSCLC,> 100 µM
same,TGI,HCC-2998 colon,> 100 µM
same,TGI,HCT-116 colon,> 100 µM
same,TGI,HCT-15 colon,> 100 µM
same,TGI,HOP-62 NSCLC,> 100 µM
same,TGI,HOP-92 NSCLC,53.2 µM
same,TGI,HS 578T breast,> 100 µM
same,TGI,HT29 colon,> 100 µM
same,TGI,IGROV1 ovarian,> 100 µM
same,TGI,KM12 colon,> 100 µM
same,TGI,LOX IMVI melanoma,> 100 µM
same,TGI,M14 melanoma,> 100 µM
same,TGI,MALME-3M melanoma,24.8 µM
same,TGI,MCF7 breast,> 100 µM
same,TGI,MDA-MB-231 breast,> 100 µM
same,TGI,MDA-MB-435,> 100 µM
same,TGI,MDA-N,> 100 µM
same,TGI,NCI-H226 lung,> 100 µM
same,TGI,NCI-H23 lung,> 100 µM
same,TGI,NCI-H460 lung,> 100 µM
same,TGI,NCI-H522 lung,17.7 µM
same,TGI,NCI/ADR-RES ovarian,> 100 µM
same,TGI,OVCAR-3 ovarian,37.7 µM
same,TGI,OVCAR-4 ovarian,> 100 µM
same,TGI,OVCAR-8 ovarian,> 100 µM
same,TGI,PC-3 prostate,> 100 µM
same,TGI,RPMI-8226 leukemia,> 100 µM
same,TGI,RXF 393 renal,52.7 µM
same,TGI,SF-268 CNS,> 100 µM
same,TGI,SF-295 CNS,> 100 µM
same,TGI,SF-539 CNS,52.5 µM
same,TGI,SK-MEL-2 melanoma,> 100 µM
same,TGI,SK-MEL-28 melanoma,> 100 µM
same,TGI,SK-MEL-5 melanoma,> 100 µM
same,TGI,SK-OV-3 ovarian,> 100 µM
same,TGI,SN12C renal,> 100 µM
same,TGI,SNB-19 CNS,> 100 µM
same,TGI,SNB-75 CNS,> 100 µM
same,TGI,SR leukemia,> 100 µM
same,TGI,SW-620 colon,50.4 µM
same,TGI,T-47D breast,36.7 µM
same,TGI,TK-10 renal,> 100 µM
same,TGI,U251 CNS,> 100 µM
same,TGI,UACC-257 melanoma,> 100 µM
same,TGI,UACC-62 melanoma,> 100 µM
same,TGI,UO-31 renal,> 100 µM
